US10343992B2, “1-cyano-pyrrolidine compounds as USP30 inhibitors” (MISSION THERAPEUTICS LIMITED, priority 2015, dated 2019)

Target: USP30 (Homo sapiens (Human), UniProt Q70CQ3)
Experiment: USP30 biochemical FP or FI IC50 assay
Details: read-out: IC50 range
Protocol: USP30 Biochemical IC50 Assay
Dilution plates were prepared at 21 times the final concentration (2100 μM for a final concentration of 100 μM) in 50% DMSO in a 96-well polypropylene V-bottom plate (Greiner #651201). A typical 8-point dilution series would be 100, 30, 10, 3, 1, 0.3, 0.1, 0.03 μM final. Reactions were performed in duplicate in black 384 well plates (small volume, Greiner 784076) in a final reaction volume of 21 μl. Either 1 μl of 50% DMSO or diluted compound was added to the plate. USP30 was diluted in reaction buffer (40 mM Tris, pH 7.5, 0.005% Tween 20, 0.5 mg/ml BSA, 5 mM—beta-mercaptoethanol) to the equivalent of 0.05 μl/well and 10 μl of diluted USP30 was added to the compound. Enzyme and compound were incubated for 30 min at room temp. Reactions were initiated by the addition of 50 nM of TAMRA labelled peptide linked to ubiquitin via an iso-peptide bond as fluorescence polarisation substrate. Reactions were read immediately after addition of substrate and following a 2 hr incubation at room temperature. Readings were performed on a Pherastar Plus (BMG Labtech). λ Excitation 540 nm; λ Emission 590 nm.
USP30 Biochemical Fluorescence Intensity IC50 Assay
Dilution plates were prepared at 21 times the final concentration (2100 μM for a final concentration of 100 μM) in 50% DMSO in a 96-well polypropylene V-bottom plate (Greiner #651201). A typical 8-point dilution series would be 100, 30, 10, 3, 1, 0.3, 0.1, 0.03 μM final. Reactions were performed in duplicate in black 384 well plates (small volume, Greiner 784076) in a final reaction volume of 21 μl.
Either 1 μl of 50% DMSO or diluted compound was added to the plate. USP30 was diluted in reaction buffer (40 mM Tris, pH 7.5, 0.005% Tween 20, 0.5 mg/ml BSA, 5 mM—beta-mercaptoethanol) to the equivalent of 0.001 μl/well and 10 μl of diluted USP30 was added to the compound. Enzyme and compound were incubated for 30 min at room temp. Reactions were initiated by the addition of Ubiquitin-Rhodamine 110 (U-555; Boston Biochem) at a final concentration of 100 nM. Reactions were read immediately after addition of substrate and following a 2 h incubation at room temperature. Readings were performed on a Pherastar Plus (BMG Labtech). λ Excitation 487 nm; λ Emission 535 nm.

USP30, sequence (Q70CQ3 57-517): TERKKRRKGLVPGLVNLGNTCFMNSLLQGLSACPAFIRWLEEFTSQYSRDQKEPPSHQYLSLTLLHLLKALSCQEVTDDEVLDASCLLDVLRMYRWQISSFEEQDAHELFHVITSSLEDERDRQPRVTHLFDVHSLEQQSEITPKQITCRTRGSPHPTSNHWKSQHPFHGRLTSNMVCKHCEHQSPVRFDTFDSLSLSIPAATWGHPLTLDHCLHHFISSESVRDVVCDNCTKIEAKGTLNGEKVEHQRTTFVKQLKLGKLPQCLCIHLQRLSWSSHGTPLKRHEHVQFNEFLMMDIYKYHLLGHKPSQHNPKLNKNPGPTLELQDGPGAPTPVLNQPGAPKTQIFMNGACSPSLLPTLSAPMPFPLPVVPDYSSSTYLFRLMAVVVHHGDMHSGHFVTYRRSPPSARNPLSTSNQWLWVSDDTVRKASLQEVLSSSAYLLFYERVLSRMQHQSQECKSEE

Structure (SMILES)	IC50 [nM]
N#CN1CC[C@H](NC(=O)c2ccc(-c3ccncc3)cc2)C1 [Example 47, (S)-N-(1-cyanopyrrolidin-3-yl)-4-(pyridin-4-yl)benzamide]	1000 to 10000
N#CN1CC[C@H](NC(=O)c2cccc(-c3ccccc3)n2)C1 [Example 48, (S)-N-(1-cyanopyrrolidin-3-yl)-6-phenylpicolinamide]	1000 to 10000
CN(C(=O)c1ccc(-c2ccncc2Cl)cc1)[C@@H]1CCN(C#N)C1 [Example 49, (R)-4-(3-chloropyridin-4-yl)-N-(1-cyanopyrrolidin-3-yl)-N-methylbenzamide]	100 to 1000
CN(C(=O)Nc1cn2ccccc2n1)[C@@H]1CCN(C#N)C1 [Example 50, (R)-1-(1-cyanopyrrolidin-3-yl)-3-(imidazo[1,2-a]pyridin-2-yl)-1-methylurea]	100 to 1000
N#CN1C[C@H]2CCN(C(=O)c3ccc(-c4ccccc4)[nH]c3=O)[C@H]2C1 [Example 61, (3aR,6aR)-1-(2-oxo-6-phenyl-1,2-dihydropyridine-3-carbonyl)hexahydropyrrolo[3,4-b]pyrrole-5(1H)-carbonitrile]	100 to 1000
CC(C)C(=O)N(C)c1cccc(C(=O)N[C@@H]2CCN(C#N)C2)c1 [Example 62, (R)—N-(1-cyanopyrrolidin-3-yl)-3-(N-methylisobutyramido)benzamide]	100 to 1000
N#CN1CC[C@@H](NC(=O)c2ncc(-c3ccccc3)cn2)C1 [Example 63, (R)—N-(1-cyanopyrrolidin-3-yl)-5-phenylpyrimidine-2-carboxamide]	100 to 1000
N#CN1CC[C@@H](NC(=O)c2cc(-c3ccncc3)no2)C1 [Example 64, (R)—N-(1-cyanopyrrolidin-3-yl)-3-(pyridin-4-yl)isoxazole-5-carboxamide]	100 to 1000
N#CN1CC[C@@H](NC(=O)c2cc(-c3cccnc3)no2)C1 [Example 65, (R)-N-(1-cyanopyrrolidin-3-yl)-3-(pyridin-3-yl)isoxazole-5-carboxamide]	100 to 1000
N#CN1CC[C@@H](NC(=O)c2cc(-c3ccccn3)no2)C1 [Example 66, (R)-N-(1-cyanopyrrolidin-3-yl)-3-(pyridin-2-yl)isoxazole-5-carboxamide]	100 to 1000
N#CN1CC[C@@H](NC(=O)c2cc(-c3ccccc3)cnn2)C1 [Example 67, (R)—N-(1-cyanopyrrolidin-3-yl)-5-phenylpyridazine-3-carboxamide]	100 to 1000
CN(C(=O)c1ccc(-c2ccccc2)cc1)C1CCN(C#N)C1 (stereo not shown) [Example 68, N-(1-cyanopyrrolidin-3-yl)-N-methyl-[1,1′-biphenyl]-4-carboxamide]	100 to 1000
C[C@H]1CN(C#N)C[C@@H]1NC(=O)c1ncc(-c2ccccc2)s1 [Example 69, N-((3R,4S)-1-cyano-4-methylpyrrolidin-3-yl)-5-phenylthiazole-2-carboxamide]	1000 to 10000
C[C@H]1CN(C#N)C[C@@H]1NC(=O)c1cnc(-c2ccccc2)s1 [Example 71, N-((3R,4S)-1-cyano-4-methylpyrrolidin-3-yl)-2-phenylthiazole-5-carboxamide]	100 to 1000
N#CN1CC[C@@H](NC(=O)c2ccnc(N3Cc4ccccc4C3)c2)C1 [Example 73, (R)—N-(1-cyanopyrrolidin-3-yl)-2-(isoindolin-2-yl)isonicotinamide]	100 to 1000
N#CN1CC[C@@H](NC(=O)c2ccnc(N3CCc4ccccc4C3)c2)C1 [Example 74, (R)—N-(1-cyanopyrrolidin-3-yl)-2-(3,4-dihydroisoquinolin-2(1H)-yl)isonicotinamide]	100 to 1000
Cc1cn(-c2ccc(C(=O)N[C@@H]3CCN(C#N)C3)c(F)c2)cn1 [Example 75, (R)—N-(1-cyanopyrrolidin-3-yl)-2-fluoro-4-(4-methyl-1H-imidazol-1-yl)benzamide]	100 to 1000
COCCn1cc(-c2ccc(C(=O)N[C@@H]3CCN(C#N)C3)c(F)c2)cn1 [Example 82, (R)-N-(1-cyanopyrrolidin-3-yl)-2-fluoro-4-(1-(2-methoxyethyl)-1H-pyrazol-4-yl)benzamide]	100 to 1000
Cn1cc(-c2ccc3nc(C(=O)N[C@@H]4CCN(C#N)C4)[nH]c3c2)cn1 [Example 83, (R)-N-(1-cyanopyrrolidin-3-yl)-6-(1-methyl-1H-pyrazol-4-yl)-1H-benzo[d]imidazole-2-carboxamide]	100 to 1000
Cn1cc(-c2ccc3cc(C(=O)N[C@@H]4CCN(C#N)C4)[nH]c3c2)cn1 [Example 84, (R)-N-(1-cyanopyrrolidin-3-yl)-6-(1-methyl-1H-pyrazol-4-yl)-1H-indole-2-carboxamide]	100 to 1000

Now from value to molecule:

IC50 [nM]	Structure (SMILES)
< 100	COc1cc(C(=O)N[C@@H]2CCN(C#N)C2)ccc1-c1ccncc1Cl [Example 39, (R)-4-(3-chloropyridin-4-yl)-N-(1-cyanopyrrolidin-3-yl)-3-methoxybenzamide]
< 100	COc1cc(C(=O)N[C@@H]2CCN(C#N)C2)ccc1-c1ccnc(C)c1 [Example 40, (R)-N-(1-cyanopyrrolidin-3-yl)-3-methoxy-4-(2-methylpyridin-4-yl)benzamide]
100 to 1000	COc1cc(C(=O)N[C@@H]2CCN(C#N)C2)ccc1-c1ccnc(N2CCOCC2)c1 [Example 41, (R)-N-(1-cyanopyrrolidin-3-yl)-3-methoxy-4-(2-morpholinopyridin-4-yl)benzamide]
100 to 1000	N#CN1CC[C@@H](NC(=O)c2ccc(F)c(-c3ccncc3)c2)C1 [Example 42, (R)-N-(1-cyanopyrrolidin-3-yl)-4-fluoro-3-(pyridin-4-yl)benzamide]
100 to 1000	Cn1cc(-c2cc(C(=O)N[C@@H]3CCN(C#N)C3)ccc2F)cn1 [Example 43, (R)-N-(1-cyanopyrrolidin-3-yl)-4-fluoro-3-(1-methyl-1H-pyrazol-4-yl)benzamide]
< 100	Cn1cc(-c2ccc(C(=O)N[C@@H]3CCN(C#N)C3)cc2)cn1 [Example 44, (R)-N-(1-cyanopyrrolidin-3-yl)-4-(1-methyl-1H-pyrazol-4-yl)benzamide]
100 to 1000	Cn1cc(-c2cnc(C(=O)N[C@@H]3CCN(C#N)C3)nc2)cn1 [Example 45, (R)-N-(1-cyanopyrrolidin-3-yl)-5-(1-methyl-1H-pyrazol-4-yl)pyrimidine-2-carboxamide]
100 to 1000	N#CN1CC[C@@H](NC(=O)N2CCC(c3ccccc3)C2)C1 (stereo partly drawn) [Example 46, N-((R)-1-cyanopyrrolidin-3-yl)-3-phenylpyrrolidine-1-carboxamide]
< 100	C[C@@H]1CN(C#N)C[C@H]1NC(=O)c1ncc(-c2ccccc2)s1 [Example 70, N-((3S,4R)-1-cyano-4-methylpyrrolidin-3-yl)-5-phenylthiazole-2-carboxamide]
< 100	C[C@@H]1CN(C#N)C[C@H]1NC(=O)c1cnc(-c2ccccc2)s1 [Example 72, N-((3S,4R)-1-cyano-4-methylpyrrolidin-3-yl)-2-phenylthiazole-5-carboxamide]
< 100	Cn1cc(-c2ccc(C(=O)N[C@@H]3CCN(C#N)C3)cc2F)cn1 [Example 76, (R)-N-(1-cyanopyrrolidin-3-yl)-3-fluoro-4-(1-methyl-1H-pyrazol-4-yl)benzamide]
< 100	Cn1cc(-c2ccc(C(=O)N[C@@H]3CCN(C#N)C3)c(F)c2)cn1 [Example 77, (R)-N-(1-cyanopyrrolidin-3-yl)-2-fluoro-4-(1-methyl-1H-pyrazol-4-yl)benzamide]
< 100	Cn1cc(-c2cc(F)c(C(=O)N[C@@H]3CCN(C#N)C3)cc2F)cn1 [Example 78, (R)-N-(1-cyanopyrrolidin-3-yl)-2,5-difluoro-4-(1-methyl-1H-pyrazol-4-yl)benzamide]
< 100	Cc1nn(C)cc1-c1ccc(C(=O)N[C@@H]2CCN(C#N)C2)cc1F [Example 79, (R)-N-(1-cyanopyrrolidin-3-yl)-4-(1,3-dimethyl-1H-pyrazol-4-yl)-3-fluorobenzamide]
< 100	Cc1nn(C)cc1-c1ccc(C(=O)N[C@@H]2CCN(C#N)C2)c(F)c1 [Example 80, (R)-N-(1-cyanopyrrolidin-3-yl)-4-(1,3-dimethyl-1H-pyrazol-4-yl)-2-fluorobenzamide]
< 100	CCn1cc(-c2ccc(C(=O)N[C@@H]3CCN(C#N)C3)c(F)c2)cn1 [Example 81, (R)-N-(1-cyanopyrrolidin-3-yl)-4-(1-ethyl-1H-pyrazol-4-yl)-2-fluorobenzamide]
< 100	N#CN1CC[C@@H](NC(=O)c2ccc(-c3cn[nH]c3C(F)(F)F)cc2F)C1 [Example 85, (R)-N-(1-cyanopyrrolidin-3-yl)-2-fluoro-4-(5-(trifluoromethyl)-1H-pyrazol-4-yl)benzamide]
